From article PMC3396293 (Bioorganic & medicinal chemistry, 2011)
Counter-ions that a name gives are not always drawn.

Columns and labels:
Format in all cases: biochemical
steroid sulfatase (STS) = target: T1, steroid sulfatase (STS) (Homo sapiens, UniProt P08842); assay: 3H-DHEA scintillation counting; conditions: labelled compound; 5 µM DHEAS, pH 7.4, 37 °C
T1 sequence (P08842 22-583): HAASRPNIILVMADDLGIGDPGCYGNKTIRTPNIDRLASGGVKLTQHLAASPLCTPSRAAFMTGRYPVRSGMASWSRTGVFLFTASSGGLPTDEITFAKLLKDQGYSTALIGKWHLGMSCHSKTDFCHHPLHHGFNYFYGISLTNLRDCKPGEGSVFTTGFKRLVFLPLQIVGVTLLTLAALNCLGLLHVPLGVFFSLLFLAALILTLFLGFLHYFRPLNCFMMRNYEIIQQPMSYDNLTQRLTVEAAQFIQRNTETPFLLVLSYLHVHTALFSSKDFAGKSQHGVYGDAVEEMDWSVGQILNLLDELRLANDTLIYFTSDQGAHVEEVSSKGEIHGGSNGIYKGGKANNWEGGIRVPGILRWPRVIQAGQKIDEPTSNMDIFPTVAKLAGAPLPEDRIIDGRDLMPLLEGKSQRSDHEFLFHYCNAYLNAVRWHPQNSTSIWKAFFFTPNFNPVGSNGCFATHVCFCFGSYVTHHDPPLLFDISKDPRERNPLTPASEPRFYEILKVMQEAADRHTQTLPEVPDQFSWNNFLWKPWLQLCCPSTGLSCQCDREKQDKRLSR

PARS = PARS (Pseudomonas aeruginosa, UniProt P51691); assay: colorimetric assay, […] nm; conditions: 8 mM pNCS, pH 8.5, room temperature
Chain of PARS (P51691 2-536): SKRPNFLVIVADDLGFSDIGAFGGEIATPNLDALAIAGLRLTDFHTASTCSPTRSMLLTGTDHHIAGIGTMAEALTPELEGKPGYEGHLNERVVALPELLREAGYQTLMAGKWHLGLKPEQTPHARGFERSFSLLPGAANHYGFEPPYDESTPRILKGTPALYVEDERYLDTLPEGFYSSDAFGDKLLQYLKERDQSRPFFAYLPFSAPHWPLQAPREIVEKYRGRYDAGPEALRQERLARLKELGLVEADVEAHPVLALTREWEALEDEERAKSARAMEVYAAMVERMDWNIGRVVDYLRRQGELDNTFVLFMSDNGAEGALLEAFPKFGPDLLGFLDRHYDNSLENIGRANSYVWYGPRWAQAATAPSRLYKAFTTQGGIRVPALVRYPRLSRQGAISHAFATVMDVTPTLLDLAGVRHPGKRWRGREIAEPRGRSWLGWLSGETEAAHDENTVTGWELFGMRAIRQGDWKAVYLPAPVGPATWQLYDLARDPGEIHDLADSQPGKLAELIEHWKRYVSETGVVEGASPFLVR

aryl sulfatase G (ARSG) = target: T2, aryl sulfatase G (ARSG) (Homo sapiens, UniProt Q96EG1); assay: colorimetric assay, […] nm; conditions: 8 mM pNCS, 0.5 M NaOAc, pH 5.6, 37 °C
T2 sequence (Q96EG1 17-525): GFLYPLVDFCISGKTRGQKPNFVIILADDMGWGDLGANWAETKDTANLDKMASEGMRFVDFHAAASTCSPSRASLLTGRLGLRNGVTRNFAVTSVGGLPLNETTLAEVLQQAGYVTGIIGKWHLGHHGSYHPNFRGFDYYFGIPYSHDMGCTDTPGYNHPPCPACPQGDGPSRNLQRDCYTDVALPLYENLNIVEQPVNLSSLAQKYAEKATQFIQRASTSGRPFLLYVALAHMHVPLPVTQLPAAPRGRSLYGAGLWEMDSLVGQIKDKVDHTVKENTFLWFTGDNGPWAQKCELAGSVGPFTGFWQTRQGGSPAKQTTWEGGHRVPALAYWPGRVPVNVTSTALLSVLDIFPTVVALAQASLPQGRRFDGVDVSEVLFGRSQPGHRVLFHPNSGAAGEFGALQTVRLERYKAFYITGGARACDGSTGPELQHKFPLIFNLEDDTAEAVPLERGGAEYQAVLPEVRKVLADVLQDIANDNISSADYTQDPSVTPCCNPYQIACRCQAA

KARS = target: T3, KARS (Klebsiella pneumoniae, UniProt Q9X759); assay: colorimetric assay, […] nm; conditions: 8 mM pNCS, pH 7.5, room temperature
T3 sequence (Q9X759 21-577): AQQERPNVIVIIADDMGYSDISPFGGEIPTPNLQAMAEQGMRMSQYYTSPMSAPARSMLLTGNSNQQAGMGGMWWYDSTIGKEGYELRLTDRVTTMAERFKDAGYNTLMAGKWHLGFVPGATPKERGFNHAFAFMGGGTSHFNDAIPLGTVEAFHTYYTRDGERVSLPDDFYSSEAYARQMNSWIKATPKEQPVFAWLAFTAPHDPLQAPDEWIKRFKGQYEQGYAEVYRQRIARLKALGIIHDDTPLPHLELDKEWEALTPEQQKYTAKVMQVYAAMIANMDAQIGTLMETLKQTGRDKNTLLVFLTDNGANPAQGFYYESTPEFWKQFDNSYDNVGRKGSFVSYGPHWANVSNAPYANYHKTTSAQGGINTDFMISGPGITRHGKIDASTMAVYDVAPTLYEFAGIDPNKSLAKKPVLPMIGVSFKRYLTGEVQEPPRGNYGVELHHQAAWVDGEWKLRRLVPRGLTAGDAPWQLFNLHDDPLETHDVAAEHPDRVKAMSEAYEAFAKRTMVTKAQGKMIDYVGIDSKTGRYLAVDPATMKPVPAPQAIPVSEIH

Compound | 3H-DHEA scintillation counting (steroid sulfatase (STS)) | colorimetric assay, 515 nm (PARS) | colorimetric assay, 515 nm (aryl sulfatase G (ARSG)) | colorimetric assay, 515 nm (KARS)
C[C@]12CC[C@H](OS(=O)(=O)O)CC1=CC[C@@H]1[C@@H]2CC[C@]2(C)C(=O)CC[C@@H]12 [dehydroepiandrosterone-3-sulfate] | STS activity was determined using a radioactive dehydroepiandrosterone-3-sulfate (^3DHEAS) assay | – | – | –
O=[N+]([O-])c1ccc(O)c(OS(=O)(=O)O)c1 [para-nitrocatechol sulfate] | – | KARS, PARS and ARSG activities were monitored using a para-nitrocatechol sulfate (pNCS) colorimetric assay | KARS, PARS and ARSG activities were monitored using a para-nitrocatechol sulfate (pNCS) colorimetric assay | KARS, PARS and ARSG activities were monitored using a para-nitrocatechol sulfate (pNCS) colorimetric assay
